The text below walks through data of paper PMC9386795 (ACS Omega, 2022).

≈ marks a conversion by molar mass, not a printed value. Entries after “also recorded” stand apart in the source; their conditions may differ. A value given as a limit tells only on which side of the number the result lay.

The subject of test [1] is wild-type PA (WTPA), P. aeruginosa ATCC 9027. Kind of test: Broth microdilution MIC assay against WTPA. Particulars: for MIC: Pseudomonas aeruginosa, ATCC9027, read-out: WTPA MIC.
The subject of test [2] is methicillin susceptible SA (MSSA), S. aureus ATCC 29213. As to the kind of experiment: Broth microdilution MIC assay against MSSA. The following applies: for MIC: Staphylococcus aureus, ATCC29213|MSSA, read-out: MSSA MIC.
For another test, the target named is PA ATP synthase (Pseudomonas aeruginosa, UniProt Q9HT15). Kind of test: ATP synthesis assay with PA inverted membrane vesicles. The class given is biochemical. Particulars: for inhibition of PA ATP synthase (in words): PA inverted membrane vesicles; for extent of inhibition of ATP synthesis activity at highest concentration: 128 μg/mL compound.
In test [3] the test system is PA. Particulars: cited from earlier work.
In test [4] the test system is PA. As to the kind of experiment: Adjuvant assay with pentamidine, PA growth in liquid culture. The class given is cell-based, Pseudomonas aeruginosa. Particulars: 50 and 100 μM pentamidine, compared to compound alone.
The subject of test [5] is electron transport chain in PA vesicles. As to the kind of experiment: Electron transport chain activity. It counts as biochemical, Pseudomonas aeruginosa. Particulars: 64 μg/mL compound, NADH.
Where [6] appears, read: n = 3, >85% reduction in growth at OD 590 nm.

As to `COC(=O)[C@H](Cc1ccc(O)cc1)NCc1cc2ccccc2nc1OC` [Compound 20, Methyl ((2-Methoxyquinolin-3-yl)methyl)-L-tyrosinate], the minimum inhibitory concentration (MIC) in test [1] and in test [2] was over 128 mg/L in each case.
Take `COC(=O)[C@H](Cc1ccc(O)cc1)NCc1cc2ccccc2nc1OCc1ccccc1` [Compound 21, Methyl ((2-(Benzyloxy)quinolin-3-yl)methyl)-L-tyrosinate]: the MIC in test [1] and in test [2] was over 128 mg/L in each case. The “inhibition of PA ATP synthase (in words)” value against PA ATP synthase is given as “not active”.
`COc1nc2ccccc2cc1/C=N/N=C/c1cc2ccccc2nc1OC` [Compound 11, (1E,2E)-1,2-Bis((2-methoxyquinolin-3-yl)methylene)hydrazine]: the MIC in test [1] was over 128 mg/L; with PA [3] (PA), 80 mg/L (≈ 216 µM); in test [2], over 128 mg/L.
For the molecule `COC(=O)[C@H](Cc1c[nH]c2ccccc12)NCc1cc2ccccc2nc1OC` [Compound 18, Methyl ((2-Methoxyquinolin-3-yl)methyl)-L-tryptophanate], the minimum inhibitory concentration (MIC) in test [1] is over 256 mg/L. At PA ATP synthase, the “extent of inhibition of ATP synthesis activity at highest concentration” value (“extent of inhibition … at highest concentration” for short) was “complete inhibition” and the “inhibition of PA ATP synthase (in words)” value is given as “dose-dependent inhibition”. Besides, the MIC in test [2] was over 128 mg/L. Also, in the test with PA [4], the “reduction of PA growth when co-dosed with pentamidine (in words)” value (shortened to “reduction of PA growth when co-dosed”) is “statistically significant reduction; also recorded: largest reduction in PA growth of the set”.
As for `COC(=O)[C@@H](CCSC)NCc1cc2ccccc2nc1SC` [Compound 17, Methyl ((2-(Methylthio)quinolin-3-yl)methyl)-D-methioninate], the MIC in test [1] is over 256 mg/L. In addition, at PA ATP synthase, the “extent of inhibition … at highest concentration” value is on record as “not complete” and the “inhibition of PA ATP synthase (in words)” value is listed as “dose-dependent inhibition”. Further, in test [2], the MIC was 64 mg/L (≈ 183 µM). In addition, the “reduction of PA growth when co-dosed” value in the test with PA [4] is “statistically significant reduction”.
As for `COC(=O)[C@H](C)NCc1cc2ccccc2nc1OC` [Compound 14, Methyl ((2-Methoxyquinolin-3-yl)methyl)-L-alaninate], the minimal inhibitory concentration (MIC) in test [1] and in test [2] was over 128 mg/L in each case.
In the case of `COC(=O)[C@@H](Cc1c[nH]cn1)NCc1cc2ccccc2nc1OC` [Compound 23, Methyl ((2-Methoxyquinolin-3-yl)methyl)-D-histidinate], the MIC in test [1] and in test [2] was over 128 mg/L in each case.
As to `COC(=O)[C@@H](CCSC)NCc1cc2ccccc2nc1OC` [Compound 16, Methyl ((2-Methoxyquinolin-3-yl)methyl)-D-methioninate], the MIC in test [1] and in test [2] was over 128 mg/L in each case.
Consider `COC(=O)[C@H](Cc1ccc(O)cc1)NCc1cc2ccccc2nc1SC` [Compound 22, Methyl ((2-(Methylthio)quinolin-3-yl)methyl)-L-tyrosinate], for which the MIC in test [1] was over 256 mg/L; in test [2], over 128 mg/L. The “extent of inhibition … at highest concentration” value at PA ATP synthase was “complete inhibition”. The “inhibition of PA ATP synthase (in words)” value against PA ATP synthase is “dose-dependent inhibition; also recorded: active; also recorded: strongest activity”. The “reduction of PA growth when co-dosed” value in the test with PA [4] was “statistically significant reduction”.
The corresponding values for `COC(=O)[C@H](Cc1c[nH]c2ccccc12)NCc1cc2ccccc2nc1SC` [Compound 19, Methyl ((2-(Methylthio)quinolin-3-yl)methyl)-L-tryptophanate] are over 256 mg/L, over 128 mg/L, “not complete”, “dose-dependent inhibition” and “statistically significant reduction”.
For “(E)-2-(2-((2-Methoxyquinolin-3-yl)methylene)hydrazineyl)-4-phenylthiazole [Compound 13]”, in test [1] (setting [6]), the “WTPA MIC” value was over 128 mg/L. For the same molecule, the “MSSA MIC” value in test [2] (setting [6]) was over 128 mg/L.
With `COc1nc2ccccc2cc1/C=N/NC(N)=S` [Compound 12, (E)-2-((2-Methoxyquinolin-3-yl)methylene)hydrazine-1-carbothioamide], the minimum inhibitory concentration (MIC) in test [1] and in test [2] was over 128 mg/L throughout. Also, the “activity against PA (in words)” value in the test with PA [3] (compared with 11) is given as “weaker activity”.
`CSc1nc2ccccc2cc1C=O` [Compound 6, 2-(Methylthio)quinoline-3-carbaldehyde]: in test [2], the minimal inhibitory concentration (MIC) stood at 64 mg/L (≈ 315 µM).
As to `CCOC(=O)C1=C(C)NC(=O)NC1c1cc2ccccc2nc1OC` (stereo not shown) [Compound 9, Ethyl 4-(2-Methoxyquinolin-3-yl)-6-methyl-2-oxo-1,2,3,4-tetrahydropyrimidine-5-carboxylate], the MIC in test [1] and in test [2] was over 128 mg/L each time.
With `COC(=O)[C@@H](NCc1cc2ccccc2nc1OCc1ccccc1)C(C)C` [Compound 15, Methyl ((2-(Benzyloxy)quinolin-3-yl)methyl)-L-valinate], in test [1], the MIC is over 256 mg/L. Moreover, at PA ATP synthase, the “extent of inhibition … at highest concentration” value was “not complete” and the “inhibition of PA ATP synthase (in words)” value is given as “dose-dependent inhibition; also recorded: active”. The MIC in test [2] was over 128 mg/L. Besides, the “reduction of PA growth when co-dosed” value in the test on PA [4] is given as “no significant reduction in growth”.
For `COc1nc2ccccc2cc1/C=N/NC(=O)c1ccccc1` [Compound 10, (E)-N′-((2-Methoxyquinolin-3-yl)methylene)benzohydrazide], in test [1], the MIC is over 128 mg/L. In addition, at PA ATP synthase, the half-maximal inhibitory concentration (IC50) is 6.55 to 55.7 µM and the “inhibition of PA ATP synthase (in words)” value is given as “dose-dependent inhibition”. In addition, the “H+ gradient formation by the electron transport chain” value in test [5] is on record as “significant inhibition”. For the same molecule, the MIC in test [2] was over 128 mg/L.
